≈ marks a conversion by molar mass, not a printed value. Read-outs that look alike come from different tables or passages of the source.
Columns and labels:
[1] = target: T1, PBP1a from Acinetobacter baumannii (ATCC 19606) (Acinetobacter baumannii, UniProt A0ABX6CK30); test: Bocillin-FL fluorescence polarization competition binding, A. baumannii PBP1a; details: fluorescence polarization competition binding assay using Bocillin-FL; read-out: A. baumannii PBP1a Potency
T1 sequence (A0ABX6CK30 1-851): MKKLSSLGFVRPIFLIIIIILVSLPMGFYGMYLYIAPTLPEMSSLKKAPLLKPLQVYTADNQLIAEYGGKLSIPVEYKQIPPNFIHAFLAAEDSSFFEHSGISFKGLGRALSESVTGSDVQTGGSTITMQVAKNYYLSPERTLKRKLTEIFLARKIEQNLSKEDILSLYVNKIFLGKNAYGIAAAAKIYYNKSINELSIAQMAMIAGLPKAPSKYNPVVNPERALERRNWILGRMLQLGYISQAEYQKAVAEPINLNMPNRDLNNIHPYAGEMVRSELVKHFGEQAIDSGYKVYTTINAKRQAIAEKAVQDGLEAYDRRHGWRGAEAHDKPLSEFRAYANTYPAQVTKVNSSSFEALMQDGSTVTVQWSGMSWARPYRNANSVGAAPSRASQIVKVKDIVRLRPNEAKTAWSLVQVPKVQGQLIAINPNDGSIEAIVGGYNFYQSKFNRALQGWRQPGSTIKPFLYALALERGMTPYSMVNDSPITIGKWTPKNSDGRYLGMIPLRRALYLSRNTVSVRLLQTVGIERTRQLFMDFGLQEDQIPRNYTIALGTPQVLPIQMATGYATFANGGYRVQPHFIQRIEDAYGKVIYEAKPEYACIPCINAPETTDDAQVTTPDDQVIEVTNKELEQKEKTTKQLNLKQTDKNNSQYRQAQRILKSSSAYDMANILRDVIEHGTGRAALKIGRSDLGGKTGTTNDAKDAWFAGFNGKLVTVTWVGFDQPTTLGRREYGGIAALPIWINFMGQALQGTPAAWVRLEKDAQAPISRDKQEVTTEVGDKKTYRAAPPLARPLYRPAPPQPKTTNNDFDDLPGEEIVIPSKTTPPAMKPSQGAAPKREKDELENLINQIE
Method in brief: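 Purified PBPs pre-incubated with inhibitor (E. coli PBP3 1.5 μM, 30 min; P. aeruginosa PBP3 0.75 μM, A. baumannii PBP1a 1 μM and PBP3 0.2 μM, 15 min), then Bocillin-FL 0.1 μM (0.05 μM for PBP1a) added; FP read up to 60 min. EC50 = concentration halving bound Bocillin-FL.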

[2] = test system: B. thailandensis ATCC 700388; test: microbe, parasite or virus in culture; type: cell-based; details: Burkholderia thailandensis, ATCC700388, read-out: Minimum inhibitory concentration (MIC), B. thailandensis ATCC 700388
A. baumannii CDC-0083 = test: microbe, parasite or virus in culture; type: cell-based; details: Acinetobacter baumannii, CDC0083, read-out: MIC, A. baumannii CDC-0083
N. gonorrhoeae WHO X = test: Liquid broth MIC in Fastidious broth; details: Neisseria gonorrhoeae
[3] = test system: P. aeruginosa (ΔmexAB-oprM); test: Broth microdilution MIC in iron-depleted CAMHB (IDM); type: cell-based; details: Pseudomonas aeruginosa; iron-depleted CAMHB (IDM); […]; read-out: Minimum inhibitory concentration, P. aeruginosa ΔmexAB-oprM
N. gonorrhoeae WHO Q = test: Liquid broth MIC in Fastidious broth; details: Neisseria gonorrhoeae
[4] = test system: N. gonorrhoeae ATCC 49226; test: Liquid broth MIC in Fastidious broth; details: Neisseria gonorrhoeae
Experimental: Additional antibacterial testing of the series was performed in 8 reference strains of N. gonorrhoeae (ATCC 49226, FA1090, MS 11, WHO G, WHO L, WHO M, WHO K, WHO X, WHO Z, WHO Q, CDC-0197). ATCC 49226, FA1090, MS11, WHO G, WHO L, and WHO M produce wild type or wild-type like PBP2. WHO K, WHO X, WHO Z, WHO Q, and CDC-0197 produce mosaic PBP2. Liquid broth-based assays were used for antibacterial testing of PBP inhibitors in Neisseria gonorrhoeae. Briefly, cryo-preserved bacterial cultures of clinical strains were streaked for isolation on Chocolate Agar (72 g/L (2×) GC Agar Base (BD #228950) and 2% (2×) Hemoglobin was autoclaved at 121° C. for 20 minutes to sterilize. Once cooled to ˜50° C. the 2×GC Agar Base and 2× Hemoglobin solutions are combined and 1% IsoVitaleX Enrichment (BD #211876) was added to the solution). Strains were incubated at 36° C. and 5% CO2 to allow growth of colonies, 24 hours before inoculum preparation. 2-fold serial dilutions of test compounds were conducted in a 96 well plate with a final volume of 75 μL per well at 2-fold the final desired concentration in Fastidious broth (Remel #R07664). For preparation of assay inoculum, a direct suspension was prepared by aseptically swabbing 10-15 colonies from agar plates into culture tubes containing 2 mL of fresh sterile saline. After the dilution plates were set up, direct suspensions were then diluted in a cuvette containing sterile saline and the optical density was measured at 600 nm. Inocula were diluted such that 75 μL of this culture in Fastidious broth results in a starting bacterial concentration of 5×10^5 CFU/mL when added to the dilution plates. The plates were incubated for ˜24 hours at 36° C. and 5% CO2.

P. aeruginosa ATCC 35151 = test: microbe, parasite or virus in culture; type: cell-based; details: Pseudomonas aeruginosa, ATCC35151, read-out: Minimum inhibitory concentration, P. aeruginosa ATCC 35151
[5] = read-out: Minimum Inhibitory Concentration (MIC), N. gonorrhoeae WHO X
[6] = read-out: Minimum Inhibitory Concentration (MIC), N. gonorrhoeae WHO Q
[7] = ATCC49226, read-out: Minimum Inhibitory Concentration (MIC), N. gonorrhoeae ATCC 49226
[8] = read-out: Minimum Inhibitory Concentration, WHO X
[9] = read-out: Minimum Inhibitory Concentration, WHO Q
[10] = ATCC49226, read-out: Minimum Inhibitory Concentration, ATCC 49226

In the case of `O=C(NCCN1CCN(C(=O)NC(C(=O)N[C@H]2Cc3ccc(F)c(C(=O)O)c3OB2O)c2cc(F)c(O)c(O)c2Cl)C1=O)c1ccc(O)cc1` (stereo partly drawn) [Example 243, (3R)-3-(2-(2-chloro-5-fluoro-3,4-dihydroxyphenyl)-2-(3-(2-(4-hydroxybenzamido)ethyl)-2-oxoimidazolidine-1-carboxamido)acetamido)-7-fluoro-2-hydroxy-3,4-dihydro-2H-benzo[e][1,2]oxaborinine-8-carboxylic acid], the IC50 [1] is reported as greater than 250 µM, the MIC [2] is reported as 2 to 4 µg/mL (≈ 2.79 to 5.57 µM) and the MIC (A. baumannii CDC-0083) is reported as less than 1 µg/mL. It also gave an MIC (N. gonorrhoeae WHO X; [5]) greater than 64 µg/mL, an MIC [3] of less than 1 µg/mL and an MIC (N. gonorrhoeae WHO Q; [6]) greater than 64 µg/mL. For the same compound, the MIC [4, 7] was 16 to 32 µg/mL (≈ 22.3 to 44.6 µM) and the MIC (P. aeruginosa ATCC 35151) was less than 1 µg/mL.
`O=C(O)c1c(F)ccc2c1OB(O)[C@@H](NC(=O)C(NC(=O)N1CCN(CCNC(=O)[C@@H]3CCCN3)C1=O)c1cc(F)c(O)c(O)c1Cl)C2` (stereo partly drawn) [Example 248, (3R)-3-(2-(2-chloro-5-fluoro-3,4-dihydroxyphenyl)-2-(2-oxo-3-(2-((S)-pyrrolidine-2-carboxamido)ethyl)imidazolidine-1-carboxamido)acetamido)-7-fluoro-2-hydroxy-3,4-dihydro-2H-benzo[e][1,2]oxaborinine-8-carboxylic acid] was tested, and the IC50 [1] was greater than 250 µM, the MIC [2] was 2 to 4 µg/mL (≈ 2.88 to 5.76 µM) and the MIC (A. baumannii CDC-0083) was less than 1 µg/mL. The MIC (N. gonorrhoeae WHO X; [8]) was greater than 64 µg/mL, the MIC [3] was less than 1 µg/mL and the MIC (N. gonorrhoeae WHO Q; [9]) was 16 to 32 µg/mL (≈ 23 to 46.1 µM). For the same compound, the MIC [4, 10] was 16 to 32 µg/mL (≈ 23 to 46.1 µM) and the MIC (P. aeruginosa ATCC 35151) was less than 1 µg/mL.
Compound `O=C(NCCCN1CCN(C(=O)NC(C(=O)N[C@H]2Cc3ccc(F)c(C(=O)O)c3OB2O)c2cc(F)c(O)c(O)c2Cl)C(=O)C1=O)Nc1cccc(O)c1` (stereo partly drawn) [Example 206, (3R)-3-(2-(2-chloro-5-fluoro-3,4-dihydroxyphenyl)-2-(4-(3-(3-(3-hydroxyphenyl)ureido)propyl)-2,3-dioxopiperazine-1-carboxamido)acetamido)-7-fluoro-2-hydroxy-3,4-dihydro-2H-benzo[e][1,2]oxaborinine-8-carboxylic acid] has an IC50 [1] greater than 250 µM, an MIC [2] of 2 to 4 µg/mL (≈ 2.58 to 5.16 µM) and an MIC (A. baumannii CDC-0083) of less than 1 µg/mL. For the same compound, the MIC (N. gonorrhoeae WHO X; [5]) was greater than 64 µg/mL, the MIC [3] was less than 1 µg/mL and the MIC (N. gonorrhoeae WHO Q; [6]) was 16 to 32 µg/mL (≈ 20.6 to 41.3 µM). The MIC [4, 7] was 16 to 32 µg/mL (≈ 20.6 to 41.3 µM) and the MIC (P. aeruginosa ATCC 35151) was less than 1 µg/mL.
`O=C(CN1CCN(C(=O)NC(C(=O)N[C@H]2Cc3ccc(F)c(C(=O)O)c3OB2O)c2cc(F)c(O)c(O)c2Cl)C(=O)C1=O)NCc1cccnc1` (stereo partly drawn) [Example 240, (3R)-3-(2-(2-chloro-5-fluoro-3,4-dihydroxyphenyl)-2-(2,3-dioxo-4-(2-oxo-2-((pyridin-3-ylmethyl)amino)ethyl)piperazine-1-carboxamido)acetamido)-7-fluoro-2-hydroxy-3,4-dihydro-2H-benzo[e][1,2]oxaborinine-8-carboxylic acid] gave an IC50 [1] greater than 250 µM, an MIC [2] of 2 to 4 µg/mL (≈ 2.74 to 5.47 µM) and an MIC (A. baumannii CDC-0083) greater than 128 µg/mL. For the same compound, the MIC (N. gonorrhoeae WHO X; [5]) was greater than 64 µg/mL, the MIC [3] was less than 1 µg/mL and the MIC (N. gonorrhoeae WHO Q; [6]) was 16 to 32 µg/mL (≈ 21.9 to 43.8 µM). It also gave an MIC [4, 7] of 16 to 32 µg/mL (≈ 21.9 to 43.8 µM) and an MIC (P. aeruginosa ATCC 35151) of less than 1 µg/mL.
For `O=C(NCCCS(=O)(=O)N1CCN(C(=O)NC(C(=O)N[C@H]2Cc3ccc(F)c(C(=O)O)c3OB2O)c2cc(F)c(O)c(O)c2Cl)C1=O)Nc1ccc(O)cc1` (stereo partly drawn) [Example 276, (3R)-3-(2-(2-chloro-5-fluoro-3,4-dihydroxyphenyl)-2-(3-((3-(3-(4-hydroxyphenyl)ureido)propyl)sulfonyl)-2-oxoimidazolidine-1-carboxamido)acetamido)-7-fluoro-2-hydroxy-3,4-dihydro-2H-benzo[e][1,2]oxaborinine-8-carboxylic acid], the IC50 [1] was greater than 250 µM, the MIC [2] was greater than 128 µg/mL and the MIC (A. baumannii CDC-0083) was less than 1 µg/mL. It also gave an MIC (N. gonorrhoeae WHO X; [8]) greater than 64 µg/mL, an MIC [3] of less than 1 µg/mL and an MIC (N. gonorrhoeae WHO Q; [9]) of 16 to 32 µg/mL (≈ 19.7 to 39.5 µM). For the same compound, the MIC [4, 10] was 16 to 32 µg/mL (≈ 19.7 to 39.5 µM) and the MIC (P. aeruginosa ATCC 35151) was less than 1 µg/mL.
In the case of `O=C(NCCS(=O)(=O)N1CCN(C(=O)N[C@@H](C(=O)N[C@H]2Cc3ccc(F)c(C(=O)O)c3OB2O)c2cc(F)c(O)c(O)c2Cl)C1=O)c1nccs1` [Example 264, (R)-3-((R)-2-(2-chloro-5-fluoro-3,4-dihydroxyphenyl)-2-(2-oxo-3-((2-(thiazole-2-carboxamido)ethyl)sulfonyl)imidazolidine-1-carboxamido)acetamido)-7-fluoro-2-hydroxy-3,4-dihydro-2H-benzo[e][1,2]oxaborinine-8-carboxylic acid], the IC50 [1] is reported as greater than 250 µM, the MIC [2] is reported as less than 1 µg/mL and the MIC (A. baumannii CDC-0083) is reported as less than 1 µg/mL. The MIC (N. gonorrhoeae WHO X; [8]) was greater than 64 µg/mL, the MIC [3] was less than 1 µg/mL and the MIC (N. gonorrhoeae WHO Q; [9]) was 16 to 32 µg/mL (≈ 20.7 to 41.4 µM). It also gave an MIC [4, 10] of 16 to 32 µg/mL (≈ 20.7 to 41.4 µM) and an MIC (P. aeruginosa ATCC 35151) of less than 1 µg/mL.
Work on `O=C(NCCCN1CCN(C(=O)N[C@@H](C(=O)N[C@H]2Cc3ccc(F)c(C(=O)O)c3OB2O)c2cc(F)c(O)c(O)c2Cl)C1=O)c1cccc(O)c1` [Example 255, (R)-3-((R)-2-(2-chloro-5-fluoro-3,4-dihydroxyphenyl)-2-(3-(3-(3-hydroxybenzamido)propyl)-2-oxoimidazolidine-1-carboxamido)acetamido)-7-fluoro-2-hydroxy-3,4-dihydro-2H-benzo[e][1,2]oxaborinine-8-carboxylic acid] yielded an IC50 [1] greater than 250 µM, an MIC [2] of less than 1 µg/mL and an MIC (A. baumannii CDC-0083) of less than 1 µg/mL. For the same compound, the MIC (N. gonorrhoeae WHO X; [8]) was greater than 64 µg/mL, the MIC [3] was less than 1 µg/mL and the MIC (N. gonorrhoeae WHO Q; [9]) was 16 to 32 µg/mL (≈ 21.9 to 43.7 µM). The MIC [4, 10] was 16 to 32 µg/mL (≈ 21.9 to 43.7 µM) and the MIC (P. aeruginosa ATCC 35151) was less than 1 µg/mL.
Compound `O=C(NCCCN1CCN(C(=O)NC(C(=O)N[C@H]2Cc3ccc(F)c(C(=O)O)c3OB2O)c2cc(F)c(O)c(O)c2Cl)C(=O)C1=O)Nc1cccnc1` (stereo partly drawn) [Example 213, (3R)-3-(2-(2-chloro-5-fluoro-3,4-dihydroxyphenyl)-2-(2,3-dioxo-4-(3-(3-(pyridin-3-yl)ureido)propyl)piperazine-1-carboxamido)acetamido)-7-fluoro-2-hydroxy-3,4-dihydro-2H-benzo[e][1,2]oxaborinine-8-carboxylic acid] has an IC50 [1] greater than 250 µM, an MIC [2] of 2 to 4 µg/mL (≈ 2.63 to 5.26 µM) and an MIC (A. baumannii CDC-0083) of 8 to 16 µg/mL (≈ 10.5 to 21.1 µM). The MIC (N. gonorrhoeae WHO X; [5]) was greater than 64 µg/mL, the MIC [3] was less than 1 µg/mL and the MIC (N. gonorrhoeae WHO Q; [6]) was greater than 64 µg/mL. The MIC [4, 7] was 16 to 32 µg/mL (≈ 21.1 to 42.1 µM) and the MIC (P. aeruginosa ATCC 35151) was less than 1 µg/mL.
`O=C(NCCN1CCN(C(=O)NC(C(=O)N[C@H]2Cc3ccc(F)c(C(=O)O)c3OB2O)c2cc(F)c(O)c(O)c2Cl)C1=O)Nc1ccncc1` (stereo partly drawn) [Example 250, (3R)-3-(2-(2-chloro-5-fluoro-3,4-dihydroxyphenyl)-2-(2-oxo-3-(2-(3-(pyridin-4-yl)ureido)ethyl)imidazolidine-1-carboxamido)acetamido)-7-fluoro-2-hydroxy-3,4-dihydro-2H-benzo[e][1,2]oxaborinine-8-carboxylic acid] was tested, and the IC50 [1] was greater than 250 µM, the MIC [2] was greater than 128 µg/mL and the MIC (A. baumannii CDC-0083) was less than 1 µg/mL. It also gave an MIC (N. gonorrhoeae WHO X; [8]) greater than 64 µg/mL, an MIC [3] of less than 1 µg/mL and an MIC (N. gonorrhoeae WHO Q; [9]) greater than 64 µg/mL. For the same compound, the MIC [4, 10] was greater than 64 µg/mL and the MIC (P. aeruginosa ATCC 35151) was less than 1 µg/mL.
With `O=C(NCCCN1CCN(C(=O)N[C@H](C(=O)N[C@H]2Cc3ccc(F)c(C(=O)O)c3OB2O)c2cc(F)c(O)c(O)c2Cl)C1=O)c1ccccc1` [Example 252, (R)-3-((S)-2-(3-(3-benzamidopropyl)-2-oxoimidazolidine-1-carboxamido)-2-(2-chloro-5-fluoro-3,4-dihydroxyphenyl)acetamido)-7-fluoro-2-hydroxy-3,4-dihydro-2H-benzo[e][1,2]oxaborinine-8-carboxylic acid] the IC50 [1] was greater than 250 µM, the MIC [2] was greater than 128 µg/mL and the MIC (A. baumannii CDC-0083) was greater than 128 µg/mL. The MIC (N. gonorrhoeae WHO X; [8]) was greater than 64 µg/mL, the MIC [3] was greater than 128 µg/mL and the MIC (N. gonorrhoeae WHO Q; [9]) was greater than 64 µg/mL. For the same compound, the MIC [4, 10] was greater than 64 µg/mL and the MIC (P. aeruginosa ATCC 35151) was 2 to 4 µg/mL (≈ 2.79 to 5.59 µM).

Source: US20240270762A1, “PENICILLIN-BINDING PROTEIN INHIBITORS” (priority 2021, published 2024)
